# Test results taken from patent US7317187B2, “Frontal affinity chromatography/MALDI tandem mass spectrometry” (priority 2004, dated 2008).
# How the values were obtained:
# [1] = target: T1, entrapped dihydrofolate reductase (DHFR) (Escherichia coli, UniProt P0ABQ4); test: FAC/ESI-MS/MS on monolithic column with entrapped DHFR; format: binding, E. coli; conditions: DHFR loaded column (25 pmol initial loading), compounds infused at 50 nM, 2 mM ammonium acetate, ESI/MS/MS detection
# T1 construct: made in house
# [2] = target: dihydrofolate reductase (DHFR) (Escherichia coli, UniProt P0ABQ4); conditions: cited from earlier work
SMILES,retention (elution) time [1] [min],Kd [2] [µM]
CC(=O)NC(=O)[C@H](O)[C@@H](O)[C@H](O)[C@H](O)CO [N-acetyl-gluconamide],1.5,
Nc1nc2ncc(CNc3ccc(C(=O)N[C@@H](CCC(=O)O)C(=O)O)cc3)nc2c(=O)[nH]1 [folic acid],3,11
